The results in this text go back to US20260000763A1, “Methods of Manufacturing Therapeutic Cells” (The Board of Trustees of the Leland Stanford Junior …, priority 2022, published 2026).

In assay [1] the test system is Nalm6 leukemia cells. Briefly: Nalm6 leukemia in NSG mice treated with CD19.28 CAR T cells (in vivo stress test). The note with it: 0.2×10^6 CD19.28 CAR T cells IV day 3, manufactured in inosine vs regular media. The protocol: (§1) A: NSG mice were injected IV with 1×10^6 Nalm6 leukemia cells at day 0, and then 0.2×10^6 CD19.28 CAR T cells, generated in regular or inosine-supplemented media were given IV on day 3. Tumor progression was monitored using bioluminescent imaging. Scales are normalized for all time points. Data are mean+s.e.m. of n=5 mice per group. […] B: NSG mice were injected IV with 1×10^6 Nalm6-GD2+ leukemia cells at day 0, and then 2×10^6 HA CAR T cells, generated in regular or inosine-containing media were given IV on day 3. Tumor progression was monitored using bioluminescent imaging. Scales are normalized for all time points. Data are mean+s.e.m. of n=5 mice per group. […] C: Overall survival. N=5 mice per group. Survival curves were compared using the log-rank Mantel-Cox test. D: NSG mice were injected intramuscular with 1×10^6 143b tumor cells. 4 days later the mice were injected with 1×10^7 Her2, Her2 grown in INO+ media or mock T cells IV. Tumor growth was monitored by caliper measurements. […] N=3-5 mice per group. Survival curves were compared using the log-rank Mantel-Cox test.
(§2) In this example, the in vivo anti-tumor potency of CAR T cells manufactured in the presence or absence of inosine was assessed. […] Three days post tumor injection, mice were evaluated and normalized for engraftment using bioluminescent imaging. […]

The test system of assay [2] is Nalm6-GD2+ leukemia cells. Nature of the assay: Nalm6-GD2+ leukemia in NSG mice treated with HA CAR T cells. Particulars: 2×10^6 HA CAR T cells IV day 3, expanded in inosine vs regular media. Format: in vivo. The method, then:
as §1, §2

Assay [3] relates to CD8+ HA-CAR T cells. Briefly: ATACseq chromatin accessibility of CD8+ HA- and HA-INO-CAR T cells (ChromVAR, HOMER). Format: cell-based, human. An excerpt: Concatenated samples from n=3 donors. […] (Left) Dot plots of representative donor shown.
Assay [4] concerns GD2.bbz-CAR T cells. Briefly: GD2.bbz-CAR T cells manufactured in GMP-grade AIM 5 media with increasing inosine. Format: cell-based. The source says: FIG. 8B: Expansion rate of GD2.bbz-CAR T cells between day 3 and day 6 post-activation of CAR T cells grown in AIM 5 containing indicated concentration of inosine. N=4 donors from independent experiments.
FIG. 8C: Viability of GD2.bbz-CAR T cells cultured for 4 days in AIM 5 containing indicated concentration of inosine at day 6 post-activation. N=4 donors from independent experiments.
FIG. 8D: GD2.bbz-CAR T cells grown in media containing indicated inosine concentration between day 3 and day 8 post-activation and stimulated with 143b or Nalm6-GD2 tumor. IFNγ secretion after 24 hrs of co-culture was measured. Data are mean+s.d. of duplicate or triplicate wells. Representative of n=2 donors shown.
Next, to test this therapeutic window in the clinical context, GD2-CAR T cells were manufactured and determined to have anti-tumor activity in diffuse midline gliomas (DMGs) using GMP-grade AIM 5 media with increasing concentrations of INO (FIG. 8A).

In assay [5] the test system is HA-CAR T cells. Briefly: Mass cytometry single cell metabolic regulome profiling. The assay is classed as cell-based, human. The note with it: CyTOF, day 14. An excerpt:
INO cultured cells also expressed higher levels of enzymes associated with glutaminolysis (GLS, GPT2), and TCA activity (IDH1, IDH2, CS, SDHA), consistent with INO induced glutamine catabolismdriving TCA through anapleurosis (FIG. 11D). Proteins of complex I and complex V of the electron transport chain were also elevated, consistent with higher oxidative phosphorylation.

Assay [6] deals with Nalm6 tumor line. Briefly: Co-culture of CD19.28 CAR T cells with Nalm6: IncuCyte killing and cytokine ELISA. Format: cell-based. The method, then: (§3) In this example, CD19.28 CAR T cells were cultured in regular complete RPMI media until day 4, and then the cells were split between 11 mM glucose-(CTR) or 11 mM inosine-(INO) containing media (unless stated otherwise). A: Annexin 5 staining was performed at day 17 post-activation. Representative histograms of n=3 donors are shown. B: Surface CD19.28 CAR expression at day 14 post-activation. C: MFI of CAR molecules on CD19.28z CAR T cell surface at day 14 post activation. D: Ratio of CD4+vs CD8+CD19.28 CAR T cells at day 14 post-activation. E: CD19.28z CAR T cells were co-cultured with cells of the Nalm6 tumor line (1:8 E: T) for 75 hrs in an IncuCyte assay. […] Representative donor of n=3 is shown. F: Control media was replaced by INO+ media at the indicated day post activation. At day 14, cells were stimulated with Nalm6 tumor line, and IL-2 and IFNγ secretion was assessed by ELISA. […] For A and B, P values were determined by paired two-tailed t-tests. […] For F and G, P values were determined by unpaired two-tailed t-tests.
(§4) In this example, CD19.28 CAR T cells were generated using a retroviral vector and at day 4 post-activation, the cells were split between 11 mM glucose-(CTR) or 11 mM inosine-(INO) containing media (unless stated otherwise). Tested first was whether the absence of glucose in the culture media has a negative effect on the viability of CAR T cells.
Tumor antigen density is one of the most important factors affecting the efficacy of CAR T immunotherapy. Therefore, assessed next was whether growing CAR T cells in inosine-containing media improves their effector function against low antigen expressing tumor lines.

The test system of assay [7] is CD19.28 CAR T cells. Briefly: CD19.28 CAR T cells expanded in inosine vs glucose media: Annexin V, CAR expression, CD4/CD8, memory phenotype (flow cytometry). Format: cell-based. The protocol:
as §3
In this example, CAR T cells were cultured in control media until day 4 post activation, followed by continued expansion in regular or inosine-containing media. Phenotype of the cells was assessed by flow cytometry at day 21 post activation. A: Frequency of CD62L+ and CCR7+HA CAR+ T cells in 8 different donors. Representative histograms are shown. B: Relative frequency of central memory (CM), naïve, terminally differentiated (TEMRA) and effector memory (EM) HA CAR T cells. N=8 donors. C: Frequency of CD62L+ and CCR7+CD19.28 CAR+ T cells in 8 different donors. Representative histograms are shown. D: Relative frequency of central memory (CM), naïve, terminally differentiated (TEMRA) and effector memory (EM) CD19.28 CAR T cells. N=8 donors.
as §4
(Flow cytometry measures light scatter and fluorescence of single cells or particles in a stream.)

Where [8] appears, read: day 14, 11 mM inosine vs glucose.

Structures are written as SMILES.

`O=c1[nH]cnc2c1ncn2[C@@H]1O[C@H](CO)[C@@H](O)[C@H]1O` [inosine, Inosine]: the “tumor growth (bioluminescent imaging)” value in assay [1] is given as “significantly delayed tumor growth”. In assay [2], the survival result was “improved” and the tumor control result is recorded as “improved”. In addition, the “accessibility of RUNT, IRF and RHD family TF binding motifs” value in assay [3] (ChromVAR and HOMER) is listed as “increased accessibility”. Besides, the “genomic regions with changed chromatin accessibility” value in assay [3] (D14 CD8+ cells, three individuals) was “more than 10,000 genomic regions”. The same compound returned a PC1 variance in assay [3] (PCA of ATACseq) of 57%. For the same compound, in assay [4] (AIM 5 with increasing INO, day 3 to day 6), the cell proliferation entry is given as “significantly decreased cell proliferation”. The “CAR T cell viability” value in assay [4] (AIM 5 with increasing INO, day 6) is “no significant changes”. In assay [4] (challenged with 143b (low GD2) or Nalm6-GD2 (high GD2), 24 hrs), the “secretion of IFNγ” value was “increase in secretion of IFNγ”. Further, in assay [5], the “enzymes associated with glutaminolysis (GLS, GPT2) and TCA activity (IDH1, IDH2, CS, SDHA)” value was “higher levels”; the “expression of CAT2” value is “increased”; the “proteins of complex I and complex V of the electron transport chain” value was “elevated”. Besides, in assay [6] (Nalm6, 1:8 E:T, 75 hrs IncuCyte, cells expanded in 11 mM inosine vs glucose), the tumor killing entry is “increased tumor killing”. In addition, in assay [6] (Nalm6 expressing medium or low levels of surface CD19, day 14), the “secretion of IFNγ” value is “significantly increased secretion”. For the same compound, in assay [6] (stimulated with Nalm6 at day 14, ELISA), the “effector cytokine secretion (IL-2, IFNγ)” value was “increased”. Besides, the “percentage of live cells” value in assay [7] (CD19.28 CAR T cells, 11 mM inosine vs 11 mM glucose, day 17) is reported as “increase”. For the same compound, the “frequency of Annexin V+ apoptotic cells” value in assay [7] (CD19.28 CAR T cells, 11 mM inosine without glucose from day 4, vs 11 mM glucose, day 17 post-activation) is reported as “significantly lower frequency”. The “CAR MFI” value in assay [7] (CD19.28z CAR T cell surface, day 14, 11 mM inosine vs glucose) is “increased”. In addition, in assay [7] (setting [8]), the CD4/CD8 ratio result is recorded as “neither percentage of CAR+ T cells nor CD4/CD8 ratio was affected” and the “percentage of CAR+ T cells” value is “neither percentage of CAR+ T cells nor CD4/CD8 ratio was affected”.
